From ChEMBL document CHEMBL1201862, “PubChem BioAssay data set” (2004)
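Dose response: 5 concentrations. Exposure: 48 h. Format: 96-well plates. Endpoint: linear interpolation; highest concentration if not reached. Abbreviation: GI50, concentration required for 50% inhibition of growth.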 Activity calls are given as the source filed them. No stated cut-off is given here; in the data, active = GI50 up to about 1.1 µM and inactive = higher.

Columns and labels:
Assay in all cases: inhibition of tumour cell growth, NCI panel, 48 h
SNB-75 = tested on: SNB-75
PC-3 = tested on: PC-3
MOLT-4 = tested on: MOLT-4
HCC 2998 = tested on: HCC 2998
IGROV-1 = tested on: IGROV-1
BT-549 = tested on: BT-549
DU-145 = tested on: DU-145
HL-60 = tested on: HL-60
ACHN = tested on: ACHN
SN12C = tested on: SN12C
M14 = tested on: M14
Malme-3M = tested on: Malme-3M
K562 = tested on: K562
OVCAR-8 = tested on: OVCAR-8
HT-29 = tested on: HT-29
OVCAR-5 = tested on: OVCAR-5
NCI/ADR-RES = tested on: NCI/ADR-RES
HCT-15 = tested on: HCT-15
786-0 = tested on: 786-0
SK-OV-3 = tested on: SK-OV-3
RPMI-8226 = tested on: RPMI-8226
CCRF-CEM = tested on: CCRF-CEM
NCI-H460 = tested on: NCI-H460
SK-MEL-2 = tested on: SK-MEL-2
SNB-19 = tested on: SNB-19
Hs-578T = tested on: Hs-578T
MCF7 = tested on: MCF7
A549 = tested on: A549
NCI-H522 = tested on: NCI-H522
HCT-116 = tested on: HCT-116
MDA-MB-435 = tested on: MDA-MB-435
UACC-257 = tested on: UACC-257
HOP-62 = tested on: HOP-62
UACC-62 = tested on: UACC-62
CAKI-1 = tested on: CAKI-1
RXF 393 = tested on: RXF 393
LOX IMVI = tested on: LOX IMVI
OVCAR-3 = tested on: OVCAR-3
MDA-N = tested on: MDA-N
KM12 = tested on: KM12
NCI-H226 = tested on: NCI-H226
SW-620 = tested on: SW-620
SR = tested on: SR
SK-MEL-28 = tested on: SK-MEL-28
NCI-H23 = tested on: NCI-H23
MDA-MB-231 = tested on: MDA-MB-231
HOP-92 = tested on: HOP-92
UO-31 = tested on: UO-31
SF-539 = tested on: SF-539
T47D = tested on: T47D
OVCAR-4 = tested on: OVCAR-4
SF-268 = tested on: SF-268
U-251 = tested on: U-251
COLO 205 = tested on: COLO 205
SK-MEL-5 = tested on: SK-MEL-5

## N=C(N)c1ccc(C(NC(=O)CNS(=O)(=O)c2ccc3ccccc3c2)P(=O)(Oc2ccccc2)Oc2ccccc2)cc1 (stereo not given)
SNB-75
  GI50: 27 µM (inactive)
PC-3
  GI50: 37.8 µM (inactive)
MOLT-4
  GI50: 21 µM (inactive)
HCC 2998
  GI50: > 100 µM (inactive)
IGROV-1
  GI50: 31.8 µM (inactive)
BT-549
  GI50: 19.2 µM (inactive)
DU-145
  GI50: > 100 µM (inactive)
HL-60
  GI50: 14.2 µM (inactive)
ACHN
  GI50: > 100 µM (inactive)
SN12C
  GI50: 27.7 µM (inactive)
M14
  GI50: 45.2 µM (inactive)
Malme-3M
  GI50: 68.1 µM (inactive)
K562
  GI50: 50 µM (inactive)
OVCAR-8
  GI50: > 100 µM (inactive)
HT-29
  GI50: 98.6 µM (inactive)
OVCAR-5
  GI50: 32.6 µM (inactive)
NCI/ADR-RES
  GI50: 69.5 µM (inactive)
HCT-15
  GI50: 48.5 µM
786-0
  GI50: 36.8 µM (inactive)
SK-OV-3
  GI50: 61.9 µM (inactive)
RPMI-8226
  GI50: 46.3 µM (inactive)
CCRF-CEM
  GI50: 29.8 µM (inactive)
NCI-H460
  GI50: > 100 µM (inactive)
SK-MEL-2
  GI50: > 100 µM (inactive)
SNB-19
  GI50: 47 µM (inactive)
Hs-578T
  GI50: 35.2 µM (inactive)
MCF7
  GI50: 54 µM (inactive)
A549
  GI50: 54.1 µM (inactive)
NCI-H522
  GI50: 41.2 µM (inactive)
HCT-116
  GI50: 37.8 µM (inactive)
MDA-MB-435
  GI50: 35.6 µM (inactive)
UACC-257
  GI50: > 100 µM (inactive)
HOP-62
  GI50: 51.9 µM (inactive)
UACC-62
  GI50: 44.1 µM (inactive)
CAKI-1
  GI50: 67.5 µM (inactive)
RXF 393
  GI50: > 100 µM (inactive)
LOX IMVI
  GI50: 28.1 µM (inactive)
OVCAR-3
  GI50: > 100 µM (inactive)
MDA-N
  GI50: 47.6 µM (inactive)
KM12
  GI50: 47.4 µM (inactive)
NCI-H226
  GI50: 17.7 µM (inactive)
SW-620
  GI50: 53.2 µM (inactive)
SR
  GI50: 29.4 µM (inactive)
SK-MEL-28
  GI50: > 100 µM (inactive)
NCI-H23
  GI50: > 100 µM (inactive)
MDA-MB-231
  GI50: 41.2 µM (inactive)
HOP-92
  GI50: 29.6 µM (inactive)
UO-31
  GI50: 40.3 µM (inactive)
SF-539
  GI50: 14.1 µM (inactive)
T47D
  GI50: 65.3 µM (inactive)
OVCAR-4
  GI50: > 100 µM (inactive)
SF-268
  GI50: 29.8 µM (inactive)
U-251
  GI50: 39.4 µM (inactive)
COLO 205
  GI50: > 100 µM (inactive)
SK-MEL-5
  GI50: 39.1 µM (inactive)
